Experimental findings from PMC13376213, “Systematic discovery of motif-based interactions of the auxiliary domains of USP family deubiquitinases” (Nature Communications, 2026) are described below.

The target in one assay is T1, USP33 zf-UBP domain (Homo sapiens, UniProt Q8TEY7).
T1 construct: USP33_UBP; Q8TEY7; zf-UBP; 36; 130; 6xHis-GST (N, cleaved yes); made in house; host or cells: Escherichia coli BL21-Gold (DE3)
T1 sequence (Q8TEY7 with tags, fused parts or gaps): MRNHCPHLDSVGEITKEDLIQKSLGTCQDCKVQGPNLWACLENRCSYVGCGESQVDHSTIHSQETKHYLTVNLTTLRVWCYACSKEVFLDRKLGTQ
The assay can be described thus: FP-monitored affinity measurements, USP33 zf-UBP. Type of assay: binding.

A further assay concerns the target T2, USP22 zf-UBP domain (Homo sapiens, UniProt Q9UPT9).
T2 construct: USP22_zf-UBP; Q9UPT9; zf-UBP; 37; 130; 6xHis-GST (N, cleaved yes); made in house; host or cells: Escherichia coli BL21-Gold (DE3)
T2 sequence (Q9UPT9 37-130): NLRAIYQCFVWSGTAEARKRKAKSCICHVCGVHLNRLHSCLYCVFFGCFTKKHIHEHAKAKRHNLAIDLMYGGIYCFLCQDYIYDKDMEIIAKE
Put plainly: FP-monitored affinity measurements, USP22 zf-UBP. Type of assay: binding. Particulars: USP22_zf-UBP. The protocol: (§1) Proteins were expressed in Escherichia coli (E.coli) BL21-Gold (DE3) bacteria. The cDNAs encoding N-terminal 6-histidine-glutathione S-transferase tagged (6xHis-GST), 6xHis-tagged or GST-tagged protein domains in pETM33, pETM11, pGEX6P1 expression vectors respectively, were obtained from Genescript or kindly provided by MRC-PPU (Suppl. Data 1) The bacteria were transformed with the plasmid and grew at 37 °C in 2YT (5 g/L NaCl, 16 g/L tryptone and 10 g/L yeast extract) supplemented with Kanamycin (30 μg/mL) until reaching an OD600 of 0.7. Protein expression was induced with 0.3 mM isopropyl β-D-1 thiogalactopyranoside (IPTG) for 18 h at 18 °C while shaking. For zinc-finger domains, 50 μM of ZnSO4 was added during expression. The bacterial cultures were pelleted for 15 minutes at 4000 x g at 4 °C and stored at −20 °C until purification. The pellets were resuspended in lysis buffer (1× phosphate-buffered saline (PBS), 0.5 % Triton-X, 5 mM MgCl2, 10 μg/mL lysozyme, cOmplete^TM EDTA-free protease inhibitor cocktail (Roche), 10 μg/mL DNAseI) and incubated for 1 h shaking at 4 °C. […] The supernatant was incubated with glutathione (GSH) Sepharose (Cytiva) or Ni2+ Sepharose (Cytiva) for 1 h at 4 °C while shaking. The beads with the bound protein were washed with 1x PBS and eluted with 10 mM reduced glutathione in 50 mM Tris pH 8.0. For fluorescence polarization experiments, the proteins were not eluted from the beads, and the 6xHis-GST tag was cleaved overnight on GSH Sepharose beads at 4 °C while shaking with PreScission Protease in cleavage buffer (50 mM Tris pH 7.5, 150 mM NaCl, 1 mM DTT). The sample containing the cleaved domain was separated from the tag and protease and buffer-exchanged to 50 mM sodium phosphate buffer pH 7.4 with 1 mM DTT using a PD-10 desalting column (Cytiva). The purity and size of the proteins were analyzed by SDS-PAGE electrophoresis.
(§2) The measurements were performed at room temperature in a non-binding black half area 96-well plate (Corning) with a total volume of 50 μL per well. Peptides were obtained from GeneCust (France) with >95% purity. FITC-labeled peptides (N-terminally FITC-labeled without spacer and C-terminally amidated) were dissolved in dimethyl sulfoxide (DMSO), and unlabeled peptides (N-terminally acetylated and C-terminally amidated) were dissolved in 50 mM phosphate buffer pH 7.4. Saturation measurements were performed using a serial dilution of the protein domains in phosphate buffer (25 μL) and the addition of 10 nM FITC-labeled peptide (in phosphate buffer supplemented with 2 mM DTT) (25 μL). […] All measurements were performed in three technical replicates. The data were analyzed using GraphPad Prism version 9.2.0 for MacOS (GraphPad Software, San Diego, California USA, www.graphpad.com). The saturation curves were fitted to the quadratic equation, and the displacement curves were fitted to a sigmoidal dose-response equation as described previously.

Another assay has as its target T3, USP11 DUSP-UBL domain (Homo sapiens, UniProt P51784).
T3 construct: USP11_UBL; P51784; UBL; 6xHis-GST (N, cleaved yes); made in house; host or cells: Escherichia coli BL21-Gold (DE3)
Put plainly: FP-based affinity measurements, USP11 DUSP-UBL. Type of assay: binding. Particulars: FP saturation, FITC-labeled peptide; technical triplicates; read-out: KD, USP11 DUSP-UBL, labeled peptide (direct binding). How it is done:
as §1
as §2, with “The saturation curves were fitted to the quadratic equation, and the displacement curves were fitted to a sigmoidal dose-response equation as described previously.” left out

The next assay concerns the target T4, USP20 zf-UBP domain (Homo sapiens, UniProt Q9Y2K6).
T4 construct: USP20_UBP; Q9Y2K6; zf-UBP; 99; 6xHis-GST (N, cleaved yes); made in house; host or cells: Escherichia coli BL21-Gold (DE3)
The assay can be described thus: FP-monitored affinity measurements, USP20 zf-UBP. Type of assay: binding.

In the next assay the test system is FLAG-USP33. Put plainly: IP-MS of FLAG-USP33 and variants vs empty vector. Particulars: IP-MS. Type of assay: cell-based, human. How it is done:
For transfection, 1x10^6 HEK293 cells were seeded in 10 cm dishes with DMEM, 10% FBS, 1% L-G (without antibiotic) medium, incubated at 37 °C, with 5 % CO2 for 24 h. Cells were transfected with a transfection mix containing […] of Opti-MEM (Thermo Fisher Scientific), 20 μL of PEI stock (1 mg/mL) and […] of the desired cDNA. For co-transfection, 2.5 μg of DNA of each plasmid was used. The mix was vortexed for 15 s and incubated at room temperature for 15–20 min. The transfection mix was added to the dish and gently mixed. Plates were incubated at 37 °C for 36–48 h before harvesting. For USP33 constructs, 5 μM Bortezomib (proteasome inhibitor) was added 4 hours before harvesting the cells.
FLAG fusion proteins were immunoprecipitated from HEK293 cells transfected with plasmids encoding the protein of interest using the anti-FLAG M2 affinity gel from Sigma-Aldrich. Cell pellets were lysed with 100–200 μL/per dish lysis buffer (Pierce RIPA buffer, 1X protease inhibitor (Roche), 50 unit/μL of Benzonase Nuclease) rotating at 4 °C for 30–45 min. […] The cell lysate was clarified by centrifugation at 17,000 x g, at 4 °C for 12 min, and the supernatant was transferred to a clean, pre-chilled low-binding Eppendorf tube. […] The IP samples were centrifuged at 6500 x g at 4 °C for 30 s. The supernatant containing the unbound proteins was transferred to a clean tube. The resin was washed three times with 500 μL of TBS, centrifuged at 6500 x g at 4 °C for 30 s. The bound FLAG fusion protein was eluted with 100 μL of 150 ng/μL 3X FLAG peptide (Sigma) in TBS and incubated in the cold room for 1 h or overnight. The tube was centrifuged at 6500 x g at 4 °C for 30 s; the eluted proteins were transferred to a clean tube. The eluted proteins were prepared for analysis by western blot or Mass Spectrometry.
Immunoprecipitation (IP) was carried out as described above; four technical replicates of each IP condition were performed, and the empty vector was used as a negative control. The eluted protein was processed following the Strap-micro protocol (Protifi). The IP elution containing 1–100 μg protein was 1:1 mixed with 2X lysis buffer (10% SDS, 100 mM TEAB pH 8.5). […] Samples were vortexed, mixed with 165 μL of 100 mM TEAB in 90% methanol, and passed through an S-Trap micro column at 4000 g for 30 s to trap the proteins. The column was washed with 150 μL of 100 mM TEAB in 90% methanol (at 4,000 x g for 30 seconds) three times. The S-Trap column was centrifuged again and transferred to a clean 2 mL tube for digestion with 20 μL of digestion buffer (1 μg trypsin per 10 μg sample in 50 mM TEAB), at 37 °C overnight in a thermomixer without shaking. The digested peptides were eluted with […] of 50 mM TEAB in water, […] of 0.2 % formic acid in water, and […] of 50 % acetonitrile in water, centrifuging at 4000 x g for 1 min each time. The three elutions were pooled in a low-binding tube, placed on dry ice until frozen, dried in a SpeedVac vacuum (Thermo Scientific), and proceeded with the LCMS analysis.
Eluted peptides were resuspended in water supplemented with 0.015% dodecyl maltoside and 0.1% formic acid and were injected on a Vanquish Neo UHPLC System operating in trap and elute mode coupled to an Orbitrap Astral Mass Spectrometer (Thermo Fisher Scientific). […] Eluted peptides were analyzed using data-independent acquisition mode on the mass spectrometer.
Peptides were searched against the Uniprot Swissprot Human database (released on 02/01/2023) supplemented with the USP20 and USP33 mutants using DiaNN (v1.9.0)[62] operating in library-free mode. Data filtering and statistical analysis were carried out in Python (v3.9.0) using the packages pandas, numpy, sklearn, scipy, rpy2, Plotnine, and Plotly and R (v4.4.3) using the package limma.
Protein groups identified with a single peptide or quantified in fewer than three replicates in at least 1 condition were filtered out. […]

Where [1] appears, read: USP33_UBP, FP displacement by unlabelled peptide, read-out: KD.
The mark [2] stands for this setting: USP20_UBP, FP displacement by unlabelled peptide, read-out: KD.
Setting [3] is: FP displacement by unlabelled peptide.
Setting [4] is: FP-monitored affinity measurement (Supplementary Fig. 4D).

Where two headings read alike, the source gives them in different places. Ends that are not written are not given here. Peptide text beside a SMILES is read from it. * marks the point of attachment. FITC = O=C1OC2(c3ccc(O)cc3Oc3cc(O)ccc32)c2ccc(NC(=S)*)cc21

T4 sequence (Q9Y2K6 4-99): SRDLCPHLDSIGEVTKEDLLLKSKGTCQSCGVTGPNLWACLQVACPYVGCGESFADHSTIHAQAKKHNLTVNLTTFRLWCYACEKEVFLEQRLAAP
T3 sequence (P51784 67-288): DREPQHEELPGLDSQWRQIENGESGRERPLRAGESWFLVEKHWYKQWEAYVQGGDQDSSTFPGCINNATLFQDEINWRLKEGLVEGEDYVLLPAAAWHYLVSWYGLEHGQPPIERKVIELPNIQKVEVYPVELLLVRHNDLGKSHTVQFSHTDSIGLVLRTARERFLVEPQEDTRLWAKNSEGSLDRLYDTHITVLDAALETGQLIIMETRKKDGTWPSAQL
Method for USP20 zf-UBP domain: (§3) The measurements were performed at room temperature in a non-binding black half area 96-well plate (Corning) with a total volume of 50 μL per well. […] All measurements were performed in three technical replicates. […] The saturation curves were fitted to the quadratic equation, and the displacement curves were fitted to a sigmoidal dose-response equation as described previously[68].
Method for USP33 zf-UBP domain: as §3

As to `CC(=O)N[C@@H](Cc1ccc(O)cc1)C(=O)N[C@@H](CCCCN)C(=O)N[C@@H](CCC(N)=O)C(=O)N[C@@H](CCC(N)=O)C(=O)N[C@@H](CCCNC(=N)N)C(=O)N[C@@H](CO)C(=O)N[C@@H](CC(=O)O)C(=O)N[C@@H](CC(C)C)C(=O)N[C@@H](C)C(=O)NCC(=O)N1CCC[C@H]1C(=O)N[C@H](C(=O)N[C@@H](CC(=O)O)C(N)=O)C(C)C` [APBA2_N334A], at USP33 zf-UBP domain (setting [1]), the Kd (in general, the concentration at which binding is half-saturated) came out at 112 µM. As for `CC[C@H](C)[C@H](NC(=O)[C@H](Cc1c[nH]c2ccccc12)NC(=O)[C@H](CO)NC(=O)[C@H](CO)NC(=O)[C@H](Cc1c[nH]c2ccccc12)NC(=O)[C@@H]1CCCN1C(=O)[C@H](CCCCN)NC(=O)CNC(=O)[C@H](CC(C)C)NC(=O)[C@H](Cc1ccccc1)NC(=O)[C@H](C)NC(=O)[C@H](CCC(=O)O)NC(=O)[C@@H]1CCCN1C(=O)[C@H](CO)NC(=O)[C@@H]1CCCN1C(=O)[C@@H](NC(=S)Nc1ccc2c(c1)C(=O)OC21c2ccc(O)cc2Oc2cc(O)ccc21)C(C)C)C(=O)N[C@@H](CC(=O)O)C(=O)N[C@@H](C)C(=O)N[C@@H](C)C(=O)N[C@@H](CCCCN)C(=O)N[C@@H](CC(C)C)C(=O)N[C@@H](Cc1c[nH]cn1)C(N)=O` [FITC-ATXN7L1_36-57] ({FITC}-VPSPEAFLGKPWSSWIDAAKLH-NH2), binding at USP22 zf-UBP domain (direct FP titration (saturation) of the FITC-labelled peptide) was characterised by a dissociation constant (Kd) of 1000 nM. Consider `CC[C@H](C)[C@H](NC(=O)[C@H](Cc1c[nH]c2ccccc12)NC(=O)[C@H](CC(=O)O)NC(=O)[C@@H]1CCCN1C(=O)[C@H](Cc1ccc(O)cc1)NC(=O)[C@@H](NC(=O)[C@@H](NC(=O)[C@H](C)NC(=O)[C@H](CO)NC(=S)Nc1ccc2c(c1)C(=O)OC21c2ccc(O)cc2Oc2cc(O)ccc21)C(C)C)[C@@H](C)O)C(=O)NCC(=O)N[C@@H](CCC(N)=O)C(=O)N[C@@H](CO)C(=O)N[C@@H](Cc1ccc(O)cc1)C(=O)N[C@@H](CO)C(=O)N[C@@H](CCC(=O)O)C(=O)N[C@H](C(N)=O)C(C)C` [FITC-ORA1] ({FITC}-SAVTYPDWIGQSYSEV-NH2), for which the Kd on USP11 DUSP-UBL domain was above 290 µM. As to AQDSPIDFHLQSWMNN [CEP192], the Kd was determined as 37.1 µM at USP20 zf-UBP domain (setting [2]) and 14.1 µM on USP33 zf-UBP domain (setting [1]). At USP22 zf-UBP domain (setting [3]), “Ac-VPSLDDFAGQSWSSWVE-NH2 [ATXN7L2_18-34]” showed a Kd of 19300 nM. The same measure, in the same setting: for “Ac-VPSLDDFAGQSWSSWVERADLP-NH2 [ATXN7L2_18-39]” the value was 2910 nM; for “Ac-VPSPEAFLGKPWSSWID-NH2 [ATXN7L1_36-52]”, 11000 nM. Still for that read-out and setting: for “Ac-VPSPEAFLGKPWSSWIDAAKLH-NH2 [ATXN7L1_36-57]” the value was 100 nM. With Ac-YEKVKRRLDLDID-NH2 [CCP110], the Kd on USP20 zf-UBP domain (setting [2]) was around 505 µM; at USP33 zf-UBP domain (setting [1]), around 260 µM. As to EKVKRRLDLDID [CCP110_582-593], the dissociation constant Kd at USP20 zf-UBP domain (read-out: KD, USP20 zf-UBP) was above 500 µM; at USP33 zf-UBP domain (read-out: KD, USP33 zf-UBP), above 250 µM. As for VWA8, the log2_FC with FLAG-USP33 (FLAG-USP33-ΔDUSP2 vs EV, comparison bh_2 Sample_Limma_ImpMedInt_USP33_DUSP2_domain/EV) turned out to be 2.1493; in the assay on FLAG-USP33 (FLAG-USP33-ΔUBP vs EV, comparison bh_2 Sample_Limma_ImpMedInt_USP33_UBP_domain/EV), 2.322. On to YPFQPGRMALESQSPG [USP19], for which the Kd is around 162 µM on USP20 zf-UBP domain (setting [2]) and 40.6 µM at USP33 zf-UBP domain (setting [1]). Take YTNSSGKMALNSPQPG [IRAG1]: the values for the Kd on USP20 zf-UBP domain (setting [2]) and at USP33 zf-UBP domain (setting [1]) were 9.02 µM and 7.86 µM, respectively. “ubiquitin C-terminus: ubiquitin C-terminal peptide (YLRLRGG) [reference compound]”: the “binding of the ubiquitin C-terminus to USP20 zf-UBP” value with USP20 zf-UBP domain (setting [4]) is “do not bind the ubiquitin C-terminus with measurable affinity”. Moreover, the Kd with USP20 zf-UBP domain (setting [2]) is above 50 µM. Moreover, the “binding of the ubiquitin C-terminus to USP33 zf-UBP” value in the assay with USP33 zf-UBP domain (setting [4]) is reported as “do not bind the ubiquitin C-terminus with measurable affinity”.
